In PMC10866072, “Design, synthesis, molecular modelling and biological evaluation of novel 6-amino-5-cyano-2-thiopyrimidine derivatives as potent anticancer agents against leukemia and apoptotic inducers” (Journal of Enzyme Inhibition and Medicinal Chemistry, 2024):

Key:
CCRF-CEM = format: cell-based; conditions: Homo sapiens, one dose 10^-5 M, 48 h
HL-60(TB) = format: cell-based; conditions: Homo sapiens, one dose 10^-5 M, 48 h
K-562 = format: cell-based; conditions: Homo sapiens, K562, one dose 10^-5 M, 48 h
MOLT-4 = format: cell-based; conditions: Homo sapiens, one dose 10^-5 M, 48 h, read-out: % growth
RPMI-8226 = format: cell-based; conditions: Homo sapiens, one dose 10^-5 M, 48 h
SR = format: cell-based; conditions: Homo sapiens, one dose 10^-5 M, 48 h
A549/ATCC = format: cell-based; conditions: Homo sapiens, one dose 10^-5 M, 48 h
EKVX = format: cell-based; conditions: Homo sapiens, one dose 10^-5 M, 48 h
HOP-62 = format: cell-based; conditions: Homo sapiens, one dose 10^-5 M, 48 h
HOP-92 = format: cell-based; conditions: Homo sapiens, one dose 10^-5 M, 48 h
NCI-H226 = format: cell-based; conditions: Homo sapiens, one dose 10^-5 M, 48 h
NCI-H23 = format: cell-based; conditions: Homo sapiens, one dose 10^-5 M, 48 h, read-out: % growth
NCI-H460 = format: cell-based; conditions: Homo sapiens, one dose 10^-5 M, 48 h, read-out: % growth
NCI-H522 = format: cell-based; conditions: Homo sapiens, one dose 10^-5 M, 48 h
HCC-2998 = format: cell-based; conditions: Homo sapiens, one dose 10^-5 M, 48 h
HCT-116 = format: cell-based; conditions: Homo sapiens, one dose 10^-5 M, 48 h, read-out: % growth
HCT-15 = format: cell-based; conditions: Homo sapiens, one dose 10^-5 M, 48 h, read-out: % growth
HT29 = format: cell-based; conditions: Homo sapiens, HT-29, one dose 10^-5 M, 48 h
KM12 = format: cell-based; conditions: Homo sapiens, one dose 10^-5 M, 48 h
SW-620 = format: cell-based; conditions: Homo sapiens, one dose 10^-5 M, 48 h
SF-268 = format: cell-based; conditions: Homo sapiens, one dose 10^-5 M, 48 h, read-out: % growth
SF-295 = format: cell-based; conditions: Homo sapiens, one dose 10^-5 M, 48 h
SF-539 = format: cell-based; conditions: Homo sapiens, one dose 10^-5 M, 48 h
SNB-19 = format: cell-based; conditions: Homo sapiens, one dose 10^-5 M, 48 h, read-out: % growth
SNB-75 = format: cell-based; conditions: Homo sapiens, one dose 10^-5 M, 48 h
U251 = format: cell-based; conditions: Homo sapiens, U-251, one dose 10^-5 M, 48 h
LOX IMVI = format: cell-based; conditions: Homo sapiens, one dose 10^-5 M, 48 h, read-out: % growth
MALME-3M = format: cell-based; conditions: Homo sapiens, one dose 10^-5 M, 48 h
M14 = format: cell-based; conditions: Homo sapiens, one dose 10^-5 M, 48 h
MDA-MB-435 = format: cell-based; conditions: Homo sapiens, one dose 10^-5 M, 48 h, read-out: % growth
SK-MEL-2 = format: cell-based; conditions: Homo sapiens, one dose 10^-5 M, 48 h
SK-MEL-28 = format: cell-based; conditions: Homo sapiens, one dose 10^-5 M, 48 h
SK-MEL-5 = format: cell-based; conditions: Homo sapiens, one dose 10^-5 M, 48 h, read-out: % growth
UACC-257 = format: cell-based; conditions: Homo sapiens, one dose 10^-5 M, 48 h
UACC-62 = format: cell-based; conditions: Homo sapiens, one dose 10^-5 M, 48 h
IGROV1 = format: cell-based; conditions: Homo sapiens, IGROV-1, one dose 10^-5 M, 48 h, read-out: % growth
OVCAR-3 = format: cell-based; conditions: Homo sapiens, one dose 10^-5 M, 48 h
OVCAR-4 = format: cell-based; conditions: Homo sapiens, one dose 10^-5 M, 48 h
OVCAR-5 = format: cell-based; conditions: Homo sapiens, one dose 10^-5 M, 48 h
OVCAR-8 = format: cell-based; conditions: Homo sapiens, one dose 10^-5 M, 48 h
SK-OV-3 = format: cell-based; conditions: Homo sapiens, one dose 10^-5 M, 48 h
786-0 = format: cell-based; conditions: Homo sapiens, one dose 10^-5 M, 48 h
A498 = format: cell-based; conditions: Homo sapiens, one dose 10^-5 M, 48 h
ACHN = format: cell-based; conditions: Homo sapiens, one dose 10^-5 M, 48 h
CAKI-1 = format: cell-based; conditions: Homo sapiens, CAKI-1, 48 h, one dose 10^-5 M, 48 h
RXF 393 = format: cell-based; conditions: Homo sapiens, RXF 393, 48 h, one dose 10^-5 M, 48 h, read-out: % growth
SN12C = format: cell-based, human; conditions: Homo sapiens, one dose 10^-5 M, 48 h
TK-10 = format: cell-based; conditions: Homo sapiens, one dose 10^-5 M, 48 h
UO-31 = format: cell-based; conditions: Homo sapiens, UO-31, 48 h, one dose 10^-5 M, 48 h
PC-3 = format: cell-based; conditions: Homo sapiens, one dose 10^-5 M, 48 h
DU-145 = format: cell-based; conditions: Homo sapiens, one dose 10^-5 M, 48 h
MCF7 = format: cell-based; conditions: Homo sapiens, one dose 10^-5 M, 48 h, read-out: % growth
MDA-MB-231/ATCC = format: cell-based; conditions: Homo sapiens, one dose 10^-5 M, 48 h
HS 578T = format: cell-based; conditions: Homo sapiens; one dose 10^-5 M, 48 h; HS 578T; read-out: % growth
T-47D = format: cell-based; conditions: Homo sapiens, T47D, one dose 10^-5 M, 48 h, read-out: % growth
MDA-MB-468 = format: cell-based; conditions: Homo sapiens, one dose 10^-5 M, 48 h
[1] = system: full NCI 60 cell lines panel; conditions: Homo sapiens, 60 cell, 48 h, read-out: Mean % growth

## N#Cc1c(N)nc(S)nc1-c1ccc(Cl)cc1 [Compound 1b]
CCRF-CEM
  % cell growth at 10 µM: 65.5%
HL-60(TB)
  % growth at 10 µM: 69.6%
K-562
  % growth at 10 µM: 68.1%
MOLT-4
  activity at 10 µM: 50.7%
RPMI-8226
  % growth at 10 µM: 47.2%
SR
  percent cell growth at 10 µM: 66.9%
A549/ATCC
  % growth at 10 µM: 86%
EKVX
  % cell growth at 10 µM: 61%
HOP-62
  % growth at 10 µM: 74.6%
HOP-92
  % growth at 10 µM: 43.5%
NCI-H226
  % growth at 10 µM: 78.7%
NCI-H23
  activity at 10 µM: 85.5%
NCI-H460
  activity at 10 µM: 86.7%
NCI-H522
  % growth at 10 µM: 58.7%
HCC-2998
  % growth at 10 µM: 99.6%
HCT-116
  activity at 10 µM: 76.5%
HCT-15
  activity at 10 µM: 86%
HT29
  % growth at 10 µM: 91.1%
KM12
  % growth at 10 µM: 82%
SW-620
  % growth at 10 µM: 87.3%
SF-268
  activity at 10 µM: 69.7%
SF-295
  % cell growth at 10 µM: 76.2%
SF-539
  % growth at 10 µM: 71.9%
SNB-19
  activity at 10 µM: 60.4%
SNB-75
  % growth at 10 µM: 42.2%
U251
  % growth at 10 µM: 81.6%
LOX IMVI
  activity at 10 µM: 79.2%
MALME-3M
  % growth at 10 µM: 99.6%
M14
  % growth at 10 µM: 99.9%
MDA-MB-435
  activity at 10 µM: 86.5%
SK-MEL-2
  % growth at 10 µM: 96.5%
SK-MEL-28
  % cell growth at 10 µM: 95.6%
SK-MEL-5
  activity at 10 µM: 85.9%
UACC-257
  percent cell growth at 10 µM: 102%
UACC-62
  % growth at 10 µM: 66.8%
IGROV1
  activity at 10 µM: 57.9%
OVCAR-3
  % growth at 10 µM: 93.4%
OVCAR-4
  % growth at 10 µM: 76.2%
OVCAR-5
  percent cell growth at 10 µM: 91.6%
OVCAR-8
  % growth of cells at 10 µM: 82.2%
SK-OV-3
  % growth at 10 µM: 84.3%
786-0
  % growth at 10 µM: 85%
A498
  % growth at 10 µM: 77.4%
ACHN
  % growth at 10 µM: 77.2%
CAKI-1
  % growth at 10 µM: 52%
RXF 393
  activity at 10 µM: 55.5%
SN12C
  % growth at 10 µM: 75.7%
TK-10
  % cell growth at 10 µM: 126%
UO-31
  % cell growth at 10 µM: 45.4%
PC-3
  percent cell growth at 10 µM: 56.4%
DU-145
  % growth at 10 µM: 86.8%
MCF7
  activity at 10 µM: 67.7%
MDA-MB-231/ATCC
  % growth at 10 µM: 53.7%
HS 578T
  activity at 10 µM: 74%
T-47D
  activity at 10 µM: 58.3%
MDA-MB-468
  percent cell growth at 10 µM: 81.1%
[1]
  activity at 10 µM: 75.7%
